Results reported in paper PMC7421780 (Future Medicinal Chemistry, 2020).
pIC50: −log10 of the molar value. Values after ≈ are worked out from the molar mass of the structure shown. Where two headings read alike, the source gives them in different places.

Key:
[1] = In vitro microsomal stability assay; settings: Human, 1 μM
physchem = settings: aqueous with cosolvent or surfactant or cyclodextrin, kinetic from dmso stock
Mtb H37Rv [2] = experiment: Primary screen: MIC, IC50 and IC90 under aerobic conditions; type: cell-based; settings: Mycobacterium tuberculosis
in vitro [3] = settings: human
[4] = Human plasma, equilibrium dialysis
[5] = Caco-2 cell monolayer permeability assay; settings: human
intracellular Mtb H37Rv = experiment: microbe, parasite or virus in culture; type: cell-based; settings: Mycobacterium tuberculosis; for pIC50: THP-1, read-out: IC50 intracell; for IC90: THP-1, read-out: IC90 intracell
in vitro [6] = settings: human; remark: listed apart in the source
NRP Mtb H37Rv = experiment: microbe, parasite or virus in culture; type: cell-based; settings: Mycobacterium tuberculosis
Mtb H37Rv [7] = experiment: Minimal bactericidal concentration; type: cell-based, Mycobacterium tuberculosis; settings: Mtb H37Rv aerobic
Mycobacterium avium = experiment: MIC against nontuberculous mycobacteria, Alamar blue; type: cell-based; settings: Mycobacterium avium
Mycobacterium abscessus = experiment: MIC, IC50, IC90 against nontuberculous mycobacteria; type: cell-based; settings: for pIC50 / IC90 / MIC: Mycobacteroides abscessus
Mtb H37Rv [8] = experiment: Secondary assay: MIC, IC50 and IC90 repeated at lower starting concentrations; type: cell-based; settings: Mycobacterium tuberculosis; for MIC: read-out: MIC aerobic condition
HepG2 cytotoxicity = type: cell-based; settings: human, HepG2 cells

Compound: COc1ccc2c(c1)[C@]13CCCC[C@@H]1[C@H](C2)N(C)CC3 [Dextromethorphan, reference compound]
- NADPH-free CLint [1]: <12.8 µL/min/mg
- NADPH-free T1/2 [1]: >3 h

Compound: c1cc(Cn2ccnc2)nc(Cn2ccnc2)c1 [Compound 2a, 2,6-bis((1H-imidazol-1-yl)methyl)pyridine]
- solubility (physchem): > 200 µM
- pIC50 (Mtb H37Rv [2]): < 3.70
- IC90 (Mtb H37Rv [2]): > 200 µM
- MIC (Mtb H37Rv [2]): > 200 µM

Compound: CC(C)NCC(O)COc1cccc2ccccc12 (centres unmarked) [Propranolol, reference compound]
- recovery (in vitro [3]): 93%
- fraction unbound (in vitro [3]; plasma): 0.207
- Mean plasma fraction bound [4]: 79.3%
- Papp B→A ([5]; Caco-2): 25 ×10⁻⁶ cm/s
- Papp A→B ([5]; Caco-2, Mean A→B Papp, Caco-2, apical to basal): 12.7 ×10⁻⁶ cm/s

Compound: O=C(C[n+]1ccn(Cc2cccc(Cn3cc[n+](CC(=O)c4ccc([N+](=O)[O-])cc4)c3)n2)c1)c1ccc([N+](=O)[O-])cc1.[Br-].[Br-] [Compound 4f, 1,1′-(pyridine-2,6-diylbis(methylene))bis(3-(2-(4-nitrophenyl)-2-oxoethyl)-1H-imidazol-3-ium) bromide]
- pIC50 (intracellular Mtb H37Rv): 4.59
- IC90 (intracellular Mtb H37Rv): 48 µM
- pIC50 (in vitro [6]): < 4.30
- pIC50 (NRP Mtb H37Rv; Low oxygen): 4.60
- IC90 (NRP Mtb H37Rv; Low oxygen): 65 µM
- MIC (NRP Mtb H37Rv; Low oxygen): 183 µM
- pIC50 (NRP Mtb H37Rv; Normal oxygen): 4.31
- IC90 (NRP Mtb H37Rv; Normal oxygen): 78 µM
- MIC (NRP Mtb H37Rv; Normal oxygen): 129 µM
- mechanism of action (bacteriostatic or bactericidal) (Mtb H37Rv [7]): bactericidal
- pIC50 (Mtb H37Rv [2]): 4.42
- IC90 (Mtb H37Rv [2]): 71 µM
- MIC (Mtb H37Rv [2]): 58 µM
- MIC (Mycobacterium avium): > 200 µM
- activity against M. abscessus (in words) (Mycobacterium abscessus): showed activity
- pIC50 (Mycobacterium abscessus): 4.05
- IC90 (Mycobacterium abscessus): 97 µM
- MIC (Mycobacterium abscessus): 110 µM
- pIC50 (Mtb H37Rv [8]): 4.35
- IC90 (Mtb H37Rv [8]): 140 µM
- MIC (Mtb H37Rv [8]): 104 µM

Compound: CO[C@H]1/C=C/O[C@@]2(C)Oc3c(C)c(O)c4c(O)c(c(/C=N/N5CCN(C)CC5)c(O)c4c3C2=O)NC(=O)/C(C)=C\C=C\[C@H](C)[C@H](O)[C@@H](C)[C@@H](O)[C@@H](C)[C@H](OC(C)=O)[C@@H]1C [Rifampicin, reference compound]
- pIC50 (NRP Mtb H37Rv; Low oxygen): 8.39
- IC90 (NRP Mtb H37Rv; Low oxygen): 0.0065 µM
- MIC (NRP Mtb H37Rv; Low oxygen): 0.13 µM (≈ 0.107 µg/mL)
- MIC (NRP Mtb H37Rv; Normal oxygen): 0.096 µM (≈ 0.079 µg/mL)
- MIC (Mycobacterium avium): > 200 µM
- pIC50 (Mycobacterium abscessus): 5.68
- IC90 (Mycobacterium abscessus): 3.1 µM
- MIC (Mycobacterium abscessus): 3.3 µM (≈ 2.72 µg/mL)
- pIC50 (Mtb H37Rv [8]): 8.40
- IC90 (Mtb H37Rv [8]): 0.0077 µM
- MIC (Mtb H37Rv [8]): 0.0063 µM (≈ 0.00518 µg/mL)

Compound: Cc1ncc([N+](=O)[O-])n1CCO [Metronidazole, reference compound]
- pIC50 (NRP Mtb H37Rv; Low oxygen): 4.54
- IC90 (NRP Mtb H37Rv; Low oxygen): 110 µM
- MIC (NRP Mtb H37Rv; Low oxygen): 200 µM (≈ 34.2 µg/mL)
- pIC50 (NRP Mtb H37Rv; Normal oxygen): < 3.70
- IC90 (NRP Mtb H37Rv; Normal oxygen): > 200 µM
- MIC (NRP Mtb H37Rv; Normal oxygen): > 200 µM

Compound: O=[N+]([O-])c1cn(Cc2cccc(Cn3cnc([N+](=O)[O-])c3)n2)cn1 [Compound 2b, 2,6-bis((4-nitro-1H-imidazol-1-yl)methyl)pyridine]
- pIC50 (intracellular Mtb H37Rv): < 3.70
- IC90 (intracellular Mtb H37Rv): > 200 µM
- pIC50 (in vitro [6]): < 4.30
- pIC50 (NRP Mtb H37Rv; Low oxygen): 4.59
- IC90 (NRP Mtb H37Rv; Low oxygen): 91 µM
- MIC (NRP Mtb H37Rv; Low oxygen): 200 µM (≈ 65.9 µg/mL)
- pIC50 (NRP Mtb H37Rv; Normal oxygen): < 3.70
- IC90 (NRP Mtb H37Rv; Normal oxygen): > 200 µM
- MIC (NRP Mtb H37Rv; Normal oxygen): > 200 µM
- pIC50 (Mtb H37Rv [2]): 4.11
- IC90 (Mtb H37Rv [2]): 100 µM
- MIC (Mtb H37Rv [2]): 92 µM (≈ 30.3 µg/mL)
- pIC50 (Mtb H37Rv [8]): 4.03
- IC90 (Mtb H37Rv [8]): 100 µM
- MIC (Mtb H37Rv [8]): 101 µM (≈ 33.3 µg/mL)

Compound: CC(=O)CC(c1ccccc1)c1c(O)c2ccccc2oc1=O (centres unmarked) [Warfarin]
- recovery [4]: 96.7

Compound: COc1ccc(C(=O)C[n+]2ccn(Cc3cccc(Cn4cc[n+](CC(=O)c5ccc(OC)cc5)c4)n3)c2)cc1 [Compound 4g, 1,1′-(pyridine-2,6-diylbis(methylene))bis(3-(2-(4-methoxyphenyl)-2-oxoethyl)-1H-imidazol-3-ium) bromide]
- pIC50 (Mtb H37Rv [2]): 3.80
- IC90 (Mtb H37Rv [2]): > 200 µM
- MIC (Mtb H37Rv [2]): > 200 µM

Compound: O=C(C[n+]1cn(Cc2cccc(Cn3c[n+](CC(=O)c4ccccc4)c4ccccc43)n2)c2ccccc21)c1ccccc1.[Br-].[Br-] [Compound 6c, 1,1′-(pyridine-2,6-diylbis(methylene))bis(3-(2-oxo-2-phenylethyl)-1H-benzo[d]imidazol-3-ium) bromide]
- pIC50 (intracellular Mtb H37Rv): 4.43
- IC90 (intracellular Mtb H37Rv): > 50 µM
- pIC50 (in vitro [6]): < 4.30
- pIC50 (NRP Mtb H37Rv; Low oxygen): 4.80
- IC90 (NRP Mtb H37Rv; Low oxygen): 130 µM
- MIC (NRP Mtb H37Rv; Low oxygen): 200 µM
- pIC50 (NRP Mtb H37Rv; Normal oxygen): 4.77
- IC90 (NRP Mtb H37Rv; Normal oxygen): 60 µM
- MIC (NRP Mtb H37Rv; Normal oxygen): > 200 µM
- mechanism of action (bacteriostatic or bactericidal) (Mtb H37Rv [7]): bactericidal
- pIC50 (Mtb H37Rv [2]): 4.60
- IC90 (Mtb H37Rv [2]): 60 µM
- MIC (Mtb H37Rv [2]): 56 µM
- MIC (Mycobacterium avium): > 200 µM
- activity against M. abscessus (in words) (Mycobacterium abscessus): showed activity
- pIC50 (Mycobacterium abscessus): 3.92
- IC90 (Mycobacterium abscessus): 200 µM
- MIC (Mycobacterium abscessus): > 200 µM
- pIC50 (Mtb H37Rv [8]): 4.47
- IC90 (Mtb H37Rv [8]): 110 µM
- MIC (Mtb H37Rv [8]): 87 µM

Compound: O=C(C[n+]1cn(Cc2cccc(Cn3c[n+](CC(=O)c4ccc(Cl)cc4)c4ccccc43)n2)c2ccccc21)c1ccc(Cl)cc1 [Compound 6e, 1,1′-(pyridine-2,6-diylbis(methylene))bis(3-(2-(4-chlorophenyl)-2-oxoethyl)-1H-benzo[d]imidazol-3-ium) bromide]
- pIC50 (Mtb H37Rv [2]): 5.10
- IC90 (Mtb H37Rv [2]): 18 µM
- MIC (Mtb H37Rv [2]): 17 µM

Compound: NC(=O)C[n+]1ccn(Cc2cccc(Cn3cc[n+](CC(N)=O)c3)n2)c1 [Compound 4b, 1,1′-(pyridine-2,6-diylbis(methylene))bis(3-(2-amino-2-oxoethyl)-1H-imidazol-3-ium) iodide]
- pIC50 (Mtb H37Rv [2]): < 3.70
- IC90 (Mtb H37Rv [2]): > 200 µM
- MIC (Mtb H37Rv [2]): > 200 µM

Compound: O=C(C[n+]1ccn(Cc2cccc(Cn3cc[n+](CC(=O)c4ccc(Cl)cc4)c3)n2)c1)c1ccc(Cl)cc1 [Compound 4e, 1,1′-(pyridine-2,6-diylbis(methylene))bis(3-(2-(4-chlorophenyl)-2-oxoethyl)-1H-imidazol-3-ium) bromide]
- pIC50 (Mtb H37Rv [2]): 4.47
- IC90 (Mtb H37Rv [2]): 63 µM
- MIC (Mtb H37Rv [2]): 51 µM

Compound: O=C(C[n+]1ccn(Cc2cccc(Cn3cc[n+](CC(=O)c4ccccc4)c3)n2)c1)c1ccccc1 [Compound 4c, 1,1′-(pyridine-2,6-diylbis(methylene))bis(3-(2-oxo-2-phenylethyl)-1H-imidazol-3-ium) bromide]
- pIC50 (Mtb H37Rv [2]): < 3.70
- IC90 (Mtb H37Rv [2]): > 200 µM
- MIC (Mtb H37Rv [2]): > 200 µM

Compound: COc1ccc(C(=O)C[n+]2cn(Cc3cccc(Cn4c[n+](CC(=O)c5ccc(OC)cc5)c5ccccc54)n3)c3ccccc32)cc1 [Compound 6g, 1,1′-(pyridine-2,6-diylbis(methylene))bis(3-(2-(4-methoxyphenyl)-2-oxoethyl)-1H-benzo[d]imidazol-3-ium) bromide]
- MIC (Mtb H37Rv [2]): 58 µM

Compound: NC(=O)C[n+]1cn(Cc2cccc(Cn3c[n+](CC(N)=O)c4ccccc43)n2)c2ccccc21 [Compound 6b, 1,1′-(pyridine-2,6-diylbis(methylene))bis(3-(2-amino-2-oxoethyl)-1H-benzo[d]imidazol-3-ium) iodide]
- pIC50 (Mtb H37Rv [2]): 3.74
- IC90 (Mtb H37Rv [2]): > 200 µM
- MIC (Mtb H37Rv [2]): > 200 µM

Compound: NNC(=O)c1ccncc1 [Isoniazid, reference compound]
- pIC50 (intracellular Mtb H37Rv): 6.64
- IC90 (intracellular Mtb H37Rv): 0.29 µM

Compound: COC(=O)C[n+]1cn(Cc2cccc(Cn3c[n+](CC(=O)OC)c4ccccc43)n2)c2ccccc21 [Compound 6a, 1,1′-(pyridine-2,6-diylbis(methylene))bis(3-(2-methoxy-2-oxoethyl)-1H-benzo[d]imidazol-3-ium) bromide]
- pIC50 (Mtb H37Rv [2]): < 3.70
- IC90 (Mtb H37Rv [2]): > 200 µM
- MIC (Mtb H37Rv [2]): > 200 µM

Compound: c1cc(Cn2cnc3ccccc32)nc(Cn2cnc3ccccc32)c1 [Compound 5, 2,6-bis((1H-benzo[d]imidazol-1-yl)methyl)pyridine]
- pIC50 (intracellular Mtb H37Rv): < 3.70
- IC90 (intracellular Mtb H37Rv): > 200 µM
- solubility (physchem): > 200 µM
- pIC50 (in vitro [6]): < 4.30
- pIC50 (NRP Mtb H37Rv; Low oxygen): < 4.30
- IC90 (NRP Mtb H37Rv; Low oxygen): > 50 µM
- MIC (NRP Mtb H37Rv; Low oxygen): > 50 µM
- pIC50 (NRP Mtb H37Rv; Normal oxygen): < 4.30
- IC90 (NRP Mtb H37Rv; Normal oxygen): > 50 µM
- MIC (NRP Mtb H37Rv; Normal oxygen): > 50 µM
- pIC50 (Mtb H37Rv [2]): 4.37
- IC90 (Mtb H37Rv [2]): > 50 µM
- MIC (Mtb H37Rv [2]): > 50 µM
- pIC50 (Mtb H37Rv [8]): < 4.30
- IC90 (Mtb H37Rv [8]): > 50 µM
- MIC (Mtb H37Rv [8]): > 50 µM

Compound: CN[C@@H]1C[C@H]2O[C@@](C)([C@@H]1OC)n1c3ccccc3c3c4c(c5c6ccccc6n2c5c31)C(=O)NC4 [Staurosporine, reference compound]
- IC50 at 72 h (HepG2 cytotoxicity): 0.0086 µM
- pIC50 (in vitro [6]): 7.74

Compound: COC(=O)C[n+]1ccn(Cc2cccc(Cn3cc[n+](CC(=O)OC)c3)n2)c1 [Compound 4a, 1,1′-(pyridine-2,6-diylbis(methylene))bis(3-(2-methoxy-2-oxoethyl)-1H-imidazol-3-ium) bromide]
- pIC50 (Mtb H37Rv [2]): < 3.70
- IC90 (Mtb H37Rv [2]): > 200 µM
- MIC (Mtb H37Rv [2]): > 200 µM
